In patent US20250136702A1, “HUMAN LIFR ANTIGEN BINDING PROTEIN, PREPARATION METHOD THEREFOR, AND APPLICATION THEREOF” (NONA BIOSCIENCES (SUZHOU) CO., LTD., priority 2020, published 2025):

Test system: Human pancreatic cancer Capan-2 cells
Experiment: Pharmacodynamics in Capan-2 tumor mouse model
Type: in vivo, Balb/c nude mice
Conditions: Capan-2 model, TIW × 9 doses
Protocol: In this experiment, Capan-2 tumor mouse model was used to study the anti-tumor activity of anti-human LIFR antibody. The pharmacodynamics of PR300516 antibody administered alone (5 mg/kg and 15 mg/kg) in Capan-2 mouse model were studied. Human pancreatic cancer Capan-2 cells (ATCC cell bank) were subcutaneously inoculated into female Balb/c nude mice (charles river). The treatment method of the antibody group is: on the 5th day, the 9th day, the 12th day, the 16th day, the 19th day and the 23rd day after the tumor cell inoculation, the mice of each group are injected with the corresponding antibodies in the intraperitoneal cavity. The treatment method of the small molecule inhibitor group is: EC359 small molecule inhibitors were administered orally to mice on days 5, 7, 9, 12, 14, 16, 19, 21 and 23 after tumor cell inoculation. The tumor volume was measured on the 5th, 9th, 12th, 16th, 19th and 23rd days after tumor cell inoculation, and then the mice were euthanized.

## C#CC(F)(F)[C@]1(O)CC[C@H]2[C@@H]3CCC4=CC(=O)CCC4=C3[C@@H](c3ccc(-c4c(C)cc(C)cc4C)cc3)C[C@@]21C [EC359, reference compound]
5 mg/kg oral
  TGI (%): 40.99%
15 mg/kg oral
  TGI (%): 47.85%
